Experimental data published in patent US9581587B2, “Sperm staining and sorting methods” (INGURAN, LLC, priority 2011, dated 2017).
Blank lines part the entries; values can stand above or below the compound they belong to.

Key:
[1] = tested on: sperm; experiment: Split quality, dead quenching dye combined with split enhancing dye (Example 7); format: cell-based, Jersey bull
Protocol: A single Jersey bull was collected at an initial sperm concentration 1810×10^6 sperm/ml in a volume of 3.9 ml. […] Samples were split into two equal aliquots and in one of each pair of samples, a stock solution of phenol red was added to make a final phenol red concentration of 620 μM. […] At each concentration, one control was compared to the addition of phenol red as a split enhancing dye at a concentration of 620 μM. Sorting was performed on a MoFlo SX (Beckman Coulter, USA) in substantially the same manner described in Example 5. After calibration, screen shots of sorting histograms were taken and split quality was measured by the peak to valley ration in the same way described in Example 5. The resulting data is found in Table 15.

[2] = tested on: sperm; experiment: Post thaw motility Deer (Example 3); format: cell-based; conditions: post thaw 0 HR; RED TALP with 16 μL Hoechst 33342, Y6 with 14 μL
Protocol: (§1) Each of deer and elk were collected in the Tris-egg yolk catch fluid described as a catch media in Example 1, and shipped for sorting.
(§2) A portion of each of the deer and the elk were stained by the red food dye No. 40 treatment 40% with 16 μL Hoechst 33342 and the yellow food dye No. 6 treatment with 14 μL Hoechst 33342 as described in Example 1.
(§3) Samples were each bulk sorted with the same machine and parameters described in Example 1. Both sorted X and sorted Y sperm were collected into a single catch. The sorted samples were then frozen like those described in Example 1.
(§4) Frozen thawed samples were then tested for post thaw motilities and post thaw DNA fragmentation. Post thaw motilities were slightly higher in Elk sorted with a yellow quencher, while a more significant difference existed in progressive motility. In Table 10, post thaw DNA fragmentation in Elk can be seen at about double after 48 hours when red food dye No. 40 is compared to yellow food dye No. 6 as a dead quencher.

[3] = tested on: sperm; experiment: Post thaw DNA fragmentation Elk (Example 3); format: cell-based
Protocol: as §1, §2, §3, §4

[4] = tested on: sperm; experiment: Post thaw motility Elk (Example 3); format: cell-based; conditions: post thaw 0 HR; RED TALP with 16 μL Hoechst 33342, Y6 with 14 μL
Protocol: as §1, §2, §3, §4

[5] = tested on: sperm; experiment: Post thaw motility and percent intact acrosomes of sex sorted, frozen-thawed sperm (Example 1); format: cell-based, bovine; conditions: average over all bulls; for Motility Average 3 Hour: post thaw 3 hours, treatments as E1
Protocol: Sperm was collected from 10 different bulls on a routine collection schedule using an artificial vagina over the course of 4 days. The 10 bulls included both Jersey bulls and Holstein bulls. All ejaculates contained greater than 60% progressive motility and greater than 70% morphological normal sperm. Antibiotics were added within 15 minutes of collection.
Red food dye treatment 40%—A reduced volume of red food dye No. 40 control was established. Sperm was diluted to 160×10^6 sperm per ml in a modified TALP buffer, as described in Table 1, at a pH of 7.4. Samples collected from Jersey bulls were incubated with 16 μl of Hoechst 33342 per 2 ml of sample for between 45 and 60 minutes at 34° C., while samples collected from Holstein bulls were incubated 17 μl of Hoechst 33342 per 2 ml of sample for between 45 and 60 minutes at 34° C. After incubation an equal volume of a second modified TALP was added reducing the concentration to 80×10^6. The second modified TALP includes the components described in Table 1 with the addition of 4% egg yolk, 40 μM red food dye No. 40 (20 g/L) and the pH dropped to 5.5 with HCl.
Yellow food dye was included in a second group at an equal concentration. Sperm was diluted to 160×10^6 sperm per ml in a modified TALP buffer, as described in Table 1, at a pH of 7.4. Samples collected from Jersey bulls were incubated with 14 μl of Hoechst 33342 per 2 ml of sample for between 45 and 60 minutes at 34° C., while sample collected from Holstein bulls were incubated 15 μl of Hoechst 33342 per 2 ml of sample for between 45 and 60 minutes at 34° C. After incubation an equal volume of a second modified TALP was added reducing the concentration to 80×10^6. The second modified TALP includes the components described in Table 1 with the addition 4% egg yolk, […] yellow food dye No. 6 and a pH dropped to 5.5 with HCl. […]
Straws were thawed the following day for motility measurements at 0 hour and 3 hours. Percent intact acrosomes were measured as well, and the overall averages over all bulls on each day are illustrated in Table 3. […]

SMILES: O=S1(=O)OC(c2ccc(O)cc2)(c2ccc(O)cc2)c2ccccc21 [Phenol Red, phenolsulfonphthalein]
peak quality of combination versus dead quencher alone ([1]; phenol red 620 μM with yellow food dye No. 6 62 μM, each sperm concentration tested): gives better peak quality

post thaw DNA fragmentation compared to yellow food dye No. 6 [3]: about double
DNA fragmentation Post Sort ([3]; elk, 0 h): 0%
DNA fragmentation Pre-sort ([3]; elk, 0 h): 2.3%
DNA fragmentation Post Sort ([3]; elk, 24 h): 0.3%
DNA fragmentation Pre-sort ([3]; elk, 24 h): 5.6%
DNA fragmentation Post Sort ([3]; elk, 48 h): 0.7%
DNA fragmentation Pre-sort ([3]; elk, 48 h): 6%
SMILES: COc1cc(S(=O)(=O)O)c(C)cc1N=Nc1c(O)ccc2cc(S(=O)(=O)O)ccc12 [Red 40, 6-hydroxy-5-[(2-methoxy-5-methyl-4-sulfophenyl)azo]-2-naphthalenesulfonic acid, reference compound]
Progressive [2]: 43.0
Motile [4]: 51.0
Progressive [4]: 29.0
Motility Average 3 Hour [5]: 47.0%

DNA fragmentation Post Sort ([3]; post thaw 0 HR): 0%
DNA fragmentation Pre-sort ([3]; post thaw 0 HR): 2.3%
DNA fragmentation Post Sort ([3]; post thaw 24 HR): 0%
DNA fragmentation Pre-sort ([3]; post thaw 24 HR): 3.3%
DNA fragmentation Post Sort ([3]; post thaw 48 HR): 0.3%
DNA fragmentation Pre-sort ([3]; post thaw 48 HR): 3.7%
SMILES: O=S(=O)([O-])c1ccc(N=Nc2c(O)ccc3cc(S(=O)(=O)[O-])ccc23)cc1.[Na+].[Na+] [Yellow 6, Disodium 6-hydroxy-5[(4-sulfophenyl)azo]-2-naphthalenesulfononate]
Motile [2]: 67.5
Progressive [2]: 53.2
Motile [4]: 55.5
Progressive [4]: 38.0
Height of Peak Divided by Height of Valley ([1]; 150 million cells per mL, Yellow 6 62 μM, Phenol Red 0 μM): 1.30
Motility Average 0 Hour ([5]; post thaw 0 hour, Red = red food dye No. 40 treatment 40% (16-17 μl Hoechst 33342/2 ml), Yellow = yellow food dye No. 6 (14-15 μl)): 57.7%
Motility Average 3 Hour [5]: 49.0%
